Organism: Rattus norvegicus
Experiment: Open TG-GATES - Regimen: Daily Repeat
Format: toxicity, organism-based, Sprague-Dawley
Design: regimen Daily Repeat, gender Male, age 6 weeks
Details: in vivo, po, 30 mg/kg, route gavage, dose level Low; for APTT / Bas / Eos / Fbg / Hb / Ht / Lym / MCH / MCHC / MCV / Mono / Neu / PT / Plat / RBC / Ret / WBC: tissue Blood; for KIDNEY_L / KIDNEY_R / KIDNEY_TOTAL: tissue Kidney; for LIVER: tissue Liver; for A/G / ALP / ALT / AST / BUN / CRE / Ca / Cl / DBIL / GLC / IP / K / LDH / Na / PL / RALB / TBIL / TC / TG / TP / gamma-GTP: tissue Plasma

Compound: Cc1cccc(Nc2ccccc2C(=O)O)c1C [MEFENAMIC ACID]
- TERMINAL_BW (72 h, time 3 day): 232.8 g
- APTT (72 h, time 3 day): 19.8 s
- Bas (72 h, time 3 day): 0%
- Eos (72 h, time 3 day): 1%
- Fbg (72 h, time 3 day): 221.8 mg/dL
- Hb (72 h, time 3 day): 13.4 g/dL
- Ht (72 h, time 3 day): 38.3%
- Lym (72 h, time 3 day): 79.6%
- MCH (72 h, time 3 day): 21.4 pg
- MCHC (72 h, time 3 day): 35%
- MCV (72 h, time 3 day): 61.1 fL
- Mono (72 h, time 3 day): 2.4%
- Neu (72 h, time 3 day): 15.4%
- PT (72 h, time 3 day): 11.9 s
- Plat (72 h, time 3 day): 117.6 x10_4/uL
- RBC (72 h, time 3 day): 627.4 x10_4/ul
- Ret (72 h, time 3 day): 5.6%
- WBC (72 h, time 3 day): 94.5 x10_2/uL
- KIDNEY_L (72 h, time 3 day): 1 g
- KIDNEY_R (72 h, time 3 day): 1 g
- KIDNEY_TOTAL (72 h, time 3 day): 2 g
- LIVER (72 h, time 3 day): 10.6 g
- A/G (72 h, time 3 day): 1.6
- ALP (72 h, time 3 day): 1154.4 IU/L
- ALT (72 h, time 3 day): 36.2 IU/L
- AST (72 h, time 3 day): 66.2 IU/L
- BUN (72 h, time 3 day): 14.6 mg/dL
- CRE (72 h, time 3 day): 0.4 mg/dL
- Ca (72 h, time 3 day): 10.8 mg/dL
- Cl (72 h, time 3 day): 102 meq/L
- DBIL (72 h, time 3 day): 0.09 mg/dL
- GLC (72 h, time 3 day): 190.6 mg/dL
- IP (72 h, time 3 day): 7.8 mg/dL
- K (72 h, time 3 day): 4.2 meq/L
- LDH (72 h, time 3 day): 171.8 IU/L
- Na (72 h, time 3 day): 140 meq/L
- PL (72 h, time 3 day): 164.6 mg/dL
- RALB (72 h, time 3 day): 3.5 g/dL
- TBIL (72 h, time 3 day): 0.2 mg/dL
- TC (72 h, time 3 day): 91 mg/dL
- TG (72 h, time 3 day): 94.4 mg/dL
- TP (72 h, time 3 day): 5.6 g/dL
- gamma-GTP (72 h, time 3 day): 0.8 IU/L
- TERMINAL_BW ([…], time 7 day): 268.5 g
- TERMINAL_BW ([…], time 14 day): 312.8 g
- TERMINAL_BW ([…], time 28 day): 397.4 g
- APTT ([…], time 7 day): 19.2 s
- Bas ([…], time 7 day): 0%
- Eos ([…], time 7 day): 1.4%
- Fbg ([…], time 7 day): 237 mg/dL
- Hb ([…], time 7 day): 14 g/dL
- Ht ([…], time 7 day): 39%
- Lym ([…], time 7 day): 80.4%
- MCH ([…], time 7 day): 22.2 pg
- MCHC ([…], time 7 day): 35.8%
- MCV ([…], time 7 day): 61.9 fL
- Mono ([…], time 7 day): 2%
- Neu ([…], time 7 day): 15%
- PT ([…], time 7 day): 11.8 s
- Plat ([…], time 7 day): 125.5 x10_4/uL
- RBC ([…], time 7 day): 629.6 x10_4/ul
- Ret ([…], time 7 day): 5.4%
- WBC ([…], time 7 day): 98.6 x10_2/uL
- APTT ([…], time 14 day): 19.6 s
- Bas ([…], time 14 day): 0%
- Eos ([…], time 14 day): 1%
- Fbg ([…], time 14 day): 224.2 mg/dL
- Hb ([…], time 14 day): 14.5 g/dL
- Ht ([…], time 14 day): 40.6%
- Lym ([…], time 14 day): 80%
- MCH ([…], time 14 day): 21.5 pg
- MCHC ([…], time 14 day): 35.7%
- MCV ([…], time 14 day): 60.3 fL
- Mono ([…], time 14 day): 2.4%
- Neu ([…], time 14 day): 15.4%
- PT ([…], time 14 day): 12.1 s
- Plat ([…], time 14 day): 117 x10_4/uL
- RBC ([…], time 14 day): 673.6 x10_4/ul
- Ret ([…], time 14 day): 4%
- WBC ([…], time 14 day): 93.1 x10_2/uL
- APTT ([…], time 28 day): 18.7 s
- Bas ([…], time 28 day): 0%
- Eos ([…], time 28 day): 1.2%
- Fbg ([…], time 28 day): 248.6 mg/dL
- Hb ([…], time 28 day): 15.6 g/dL
- Ht ([…], time 28 day): 43.9%
- Lym ([…], time 28 day): 81.8%
- MCH ([…], time 28 day): 20.4 pg
- MCHC ([…], time 28 day): 35.5%
- MCV ([…], time 28 day): 57.5 fL
- Mono ([…], time 28 day): 2.2%
- Neu ([…], time 28 day): 13%
- PT ([…], time 28 day): 12.1 s
- Plat ([…], time 28 day): 107.9 x10_4/uL
- RBC ([…], time 28 day): 764.2 x10_4/ul
- Ret ([…], time 28 day): 2.5%
- WBC ([…], time 28 day): 93.1 x10_2/uL
- KIDNEY_L ([…], time 7 day): 1.1 g
- KIDNEY_R ([…], time 7 day): 1.1 g
- KIDNEY_TOTAL ([…], time 7 day): 2.2 g
- KIDNEY_L ([…], time 14 day): 1.2 g
- KIDNEY_R ([…], time 14 day): 1.2 g
- KIDNEY_TOTAL ([…], time 14 day): 2.4 g
- KIDNEY_L ([…], time 28 day): 1.4 g
- KIDNEY_R ([…], time 28 day): 1.4 g
- KIDNEY_TOTAL ([…], time 28 day): 2.8 g
- LIVER ([…], time 7 day): 12.3 g
- LIVER ([…], time 14 day): 13.7 g
- LIVER ([…], time 28 day): 16.1 g
- A/G ([…], time 7 day): 1.6
- ALP ([…], time 7 day): 1054 IU/L
- ALT ([…], time 7 day): 38.2 IU/L
- AST ([…], time 7 day): 69.8 IU/L
- BUN ([…], time 7 day): 15 mg/dL
- CRE ([…], time 7 day): 0.4 mg/dL
- Ca ([…], time 7 day): 10.6 mg/dL
- Cl ([…], time 7 day): 102.8 meq/L
- DBIL ([…], time 7 day): 0.098 mg/dL
- GLC ([…], time 7 day): 222.6 mg/dL
- IP ([…], time 7 day): 7.2 mg/dL
- K ([…], time 7 day): 3.7 meq/L
- LDH ([…], time 7 day): 204.4 IU/L
- Na ([…], time 7 day): 140.2 meq/L
- PL ([…], time 7 day): 152.4 mg/dL
- RALB ([…], time 7 day): 3.5 g/dL
- TBIL ([…], time 7 day): 0.2 mg/dL
- TC ([…], time 7 day): 75.8 mg/dL
- TG ([…], time 7 day): 114.2 mg/dL
- TP ([…], time 7 day): 5.7 g/dL
- gamma-GTP ([…], time 7 day): 0.8 IU/L
- A/G ([…], time 14 day): 1.4
- ALP ([…], time 14 day): 881.8 IU/L
- ALT ([…], time 14 day): 33.4 IU/L
- AST ([…], time 14 day): 57.8 IU/L
- BUN ([…], time 14 day): 16 mg/dL
- CRE ([…], time 14 day): 0.4 mg/dL
- Ca ([…], time 14 day): 10.6 mg/dL
- Cl ([…], time 14 day): 103.4 meq/L
- DBIL ([…], time 14 day): 0.098 mg/dL
- GLC ([…], time 14 day): 205.2 mg/dL
- IP ([…], time 14 day): 7.1 mg/dL
- K ([…], time 14 day): 3.9 meq/L
- LDH ([…], time 14 day): 152.4 IU/L
- Na ([…], time 14 day): 140.8 meq/L
- PL ([…], time 14 day): 151.4 mg/dL
- RALB ([…], time 14 day): 3.3 g/dL
- TBIL ([…], time 14 day): 0.2 mg/dL
- TC ([…], time 14 day): 74.4 mg/dL
- TG ([…], time 14 day): 125 mg/dL
- TP ([…], time 14 day): 5.7 g/dL
- gamma-GTP ([…], time 14 day): 1 IU/L
- A/G ([…], time 28 day): 1.4
- ALP ([…], time 28 day): 696 IU/L
- ALT ([…], time 28 day): 32.8 IU/L
- AST ([…], time 28 day): 57.8 IU/L
- BUN ([…], time 28 day): 17.8 mg/dL
- CRE ([…], time 28 day): 0.5 mg/dL
- Ca ([…], time 28 day): 10.5 mg/dL
- Cl ([…], time 28 day): 103.8 meq/L
- DBIL ([…], time 28 day): 0.082 mg/dL
- GLC ([…], time 28 day): 227 mg/dL
- IP ([…], time 28 day): 6.6 mg/dL
- K ([…], time 28 day): 3.5 meq/L
- LDH ([…], time 28 day): 103.4 IU/L
- Na ([…], time 28 day): 141.2 meq/L
- PL ([…], time 28 day): 146.2 mg/dL
- RALB ([…], time 28 day): 3.5 g/dL
- TBIL ([…], time 28 day): 0.1 mg/dL
- TC ([…], time 28 day): 78.2 mg/dL
- TG ([…], time 28 day): 97 mg/dL
- TP ([…], time 28 day): 6.1 g/dL
- gamma-GTP ([…], time 28 day): 1.2 IU/L

Reference: ChEMBL document CHEMBL3885861, “Open TG-GATES”
